Test results: PubChem BioAssay (NCI)
“And” between values parts separate entries of the source, which are not always exact repeats. Identical values can stand only once.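 Grown in 96-well plates, cells were treated for 48 hours with each compound at five concentrations. Insufficient inhibition: endpoint recorded as highest concentration tested. Here, GI50 denotes the concentration required for 50% inhibition of growth. At the TGI there is no net growth.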

Legend:
Assay in all cases: NCI tumour cell line growth inhibition, 48 h
MDA-N = system: MDA-N
LXFL 529 NSCLC = system: LXFL 529 NSCLC
HOP-18 NSCLC = system: HOP-18 NSCLC
DMS 114 small cell lung = system: DMS 114 small cell lung
M19-MEL melanoma = system: M19-MEL melanoma
XF 498 CNS = system: XF 498 CNS
RXF-631 renal = system: RXF-631 renal
DMS 273 small cell lung = system: DMS 273 small cell lung
KM20L2 colon = system: KM20L2 colon
P388/ADR leukemia = system: P388/ADR leukemia
P388 leukemia = system: P388 leukemia
SN12K1 renal = system: SN12K1 renal

| Structure (SMILES) | TGI (MDA-N) [µM] | TGI (LXFL 529 NSCLC) [µM] | TGI (HOP-18 NSCLC) | TGI (DMS 114 small cell lung) | TGI (M19-MEL melanoma) | TGI (XF 498 CNS) [µM] | TGI (DMS 273 small cell lung) | TGI (KM20L2 colon) | also measured |
| --- | --- | --- | --- | --- | --- | --- | --- | --- | --- |
| O=c1oc2c(Br)c(O)c(Br)cc2c2ccccc12 | > 100 |  |  |  |  |  |  |  |  |
| Nc1ccn(C2OC(CO[P+](=O)OC3C(CO[P+](=O)OC4C(CO[P+](=O)OC5C(CO[P+](=O)OC6C(CO[P+](=O)OC7C(CO[P+](=O)OC8C(CO[P+](=O)OC9C(CO[P+](=O)OC%10C(CO[P+](=O)OC%11C(CO)OC(n%12ccc(N)nc%12=O)C%11(F)F)OC(n%11ccc(N)nc%11=O)C%10(F)F)OC(n%10ccc(N)nc%10=O)C9(F)F)OC(n9ccc(N)nc9=O)C8(F)F)OC(n8ccc(N)nc8=O)C7(F)F)OC(n7ccc(N)nc7=O)C6(F)F)OC(n6ccc(N)nc6=O)C5(F)F)OC(n5ccc(N)nc5=O)C4(F)F)OC(n4ccc(N)nc4=O)C3(F)F)C(O)C2(F)F)c(=O)n1 (stereo not drawn) | > 100 |  |  |  |  |  |  |  |  |
| CCOC(=O)NC(=O)c1cn(CCCCCCCCCCC(=O)N2CCN(CCn3cc(C(=O)NC(=O)OCC)c(=O)[nH]c3=O)CC2)c(=O)[nH]c1=O |  | > 100 | > 100 µM | > 100 µM | > 100 µM | > 100 | > 100 µM | > 100 µM | TGI (RXF-631 renal): > 100 µM |
| CCC[CH2][Sn]([CH2]CCC)([O]C(=O)c1cc(OC)c(OC)c(OC)c1)[O]C(=O)c1cc(OC)c(OC)c(OC)c1 |  | 0.536 |  | 1.54 µM | 2.02 µM |  | 2.95 µM | 3.3 µM | GI50 (LXFL 529 NSCLC): 0.215 µM; GI50 (DMS 114 small cell lung): 0.404 µM; GI50 (M19-MEL melanoma): 0.749 µM; GI50 (RXF-631 renal): 0.53 µM; TGI (RXF-631 renal): 1.83 µM; GI50 (DMS 273 small cell lung): 1.35 µM; GI50 (KM20L2 colon): 1.8 µM |
| CCOC(=O)/C(=C/c1cc(OC)ccc1OC)CC(=O)O |  | > 100 | > 100 µM | > 100 µM | > 100 µM | > 56.7 | > 100 µM | > 100 µM | TGI (RXF-631 renal): > 100 µM |
| OCC1OC(n2ccc3cnccc32)CC1O (stereo not drawn) |  | > 100 | > 100 µM | > 100 µM | > 100 µM |  | > 100 µM |  |  |
| Oc1ccc(Cl)cc1Cc1cc(Cl)cc(Cc2cc(Cl)ccc2O)c1O | 8.31 |  |  |  |  |  |  |  |  |
| O=C1C(CN(Cc2ccccc2)Cc2ccccc2)CCCC1CN(Cc1ccccc1)Cc1ccccc1 (stereo not drawn) | > 100 |  | 11.8 µM and > 100 µM | 10.3 µM and > 100 µM | 18.7 µM and > 100 µM | 28.4 | 33.3 µM and > 100 µM | 35.6 µM and > 100 µM | GI50 (HOP-18 NSCLC): 5.67 µM and 48.5 µM; TGI (RXF-631 renal): > 100 µM; GI50 (DMS 273 small cell lung): 17.1 µM and > 100 µM; GI50 (KM20L2 colon): 17.6 µM and > 100 µM |
| Cc1c(NC(=O)CCCl)c(=O)oc2c(C)c3occc(=O)c3cc12 | > 100 |  |  |  |  |  |  |  |  |
| CCCCCCCCC(=O)CCCCCCCCC(=O)O |  | 67.5 | 49.4 µM | 64.4 µM | > 100 µM | > 100 | 75.7 µM | 67.8 µM | TGI (RXF-631 renal): 44.1 µM |
| COC(=O)C1C(=O)O[C@@H](c2ccc(OC)cc2)C1C(=O)OC (stereo partly drawn) |  | > 100 | > 100 µM | > 100 µM | > 100 µM | > 100 | > 100 µM | > 100 µM |  |
| C=CCOC1=C2CC[C@H](O)[C@@]2(C)CCC1=O |  | > 100 | > 100 µM | > 100 µM | > 100 µM |  | > 100 µM | > 100 µM |  |
| O=C1C(=O)c2ccccc2C=C1[N+](=O)[O-] | 39.2 |  |  |  |  |  |  |  |  |
| O=[n+]1cnn([O-])c2ccccc21 | 44.2 |  |  |  |  |  |  |  |  |
| CC1C(=O)CCC1C(Sc1ccccc1)(Sc1ccccc1)Sc1ccccc1 (stereo not drawn) |  | 77.9 |  | 49.6 µM | > 100 µM | 80.9 | > 100 µM |  | TGI (RXF-631 renal): > 100 µM |
| N#CC(NC12CC3CC(CC(C3)C1)C2)c1ccccc1 (stereo not drawn) | > 100 |  |  |  |  |  |  |  |  |

| Structure (SMILES) | TGI (MDA-N) [µM] | TGI (LXFL 529 NSCLC) [µM] | TGI (HOP-18 NSCLC) | TGI (DMS 114 small cell lung) | TGI (M19-MEL melanoma) | TGI (XF 498 CNS) [µM] | TGI (DMS 273 small cell lung) | TGI (KM20L2 colon) | also measured |
| --- | --- | --- | --- | --- | --- | --- | --- | --- | --- |
| COC(=O)C1C2CC3C(OC(=O)C31)C2I (stereo not drawn) |  |  |  | > 100 µM | > 100 µM |  | > 100 µM | > 100 µM |  |
| COc1ccccc1/C=C1\CCC(CN(C)C)C1=O (stereo not drawn) | 26 |  | > 53.1 µM | 7.58 µM | 7.46 µM | 32.6 | 20.5 µM | 16.4 µM | TGI (P388/ADR leukemia): 2.75 µM; TGI (P388 leukemia): 2.83 µM; TGI (SN12K1 renal): 4.4 µM |
| O=S1Cc2ccccc2CS1 (stereo not drawn) |  | 28.7 | > 100 µM |  | 33.7 µM | 32.6 | 29.8 µM | > 100 µM | TGI (RXF-631 renal): > 100 µM |
| S=C1CNC(=S)CN1 |  | > 100 | > 100 µM | > 100 µM | > 100 µM |  | > 100 µM | > 100 µM | TGI (RXF-631 renal): > 100 µM |
| Cc1ccc(NC(=O)C2C(=O)C(=O)N(c3ccc(C)cc3)C2=O)cc1 (stereo not drawn) |  | > 100 | > 100 µM | > 100 µM | > 100 µM |  |  | > 100 µM |  |
| NC(Cc1cc(Br)c(O)c(Br)c1)C(=O)O (stereo not drawn) | > 100 |  |  |  |  |  |  |  |  |
| CC(/C=C/C=C/C=C/C=C/C=C/C(O)=C1/C(=O)C(CCC(=O)O)N(C)C1=O)=C\C(C)C(OC1CC(O)C(O)C(C)O1)C(C)C (stereo not drawn) | 12.7 |  |  |  |  |  |  |  |  |
| c1ccc2c(c1)nnn1c3cnccc3nc21 |  | > 100 | > 100 µM | 69.5 µM | > 100 µM |  | 36 µM | > 100 µM |  |
| COC(=O)C(=C\Sc1ccccc1)/C=C/C(=O)OC(C)(C)C |  | 13.5 | 30 µM | 25.8 µM | 23.9 µM | 28.3 | 24.5 µM | 31.1 µM |  |
| Oc1c(Cl)cc(C(c2cc(Cl)c(O)c(Cl)c2)C(c2cc(Cl)c(O)c(Cl)c2)c2cc(Cl)c(O)c(Cl)c2)cc1Cl | 19 |  |  |  |  |  |  |  | GI50 (MDA-N): 4.07 µM |
| CCC1(O)C(=O)OCc2c1cc1n(c2=O)Cc2c-1nc1ccccc1c2OC (stereo not drawn) |  | > 69.6 | > 77.9 µM | 1.26 µM | 1.89 µM |  | 0.108 µM |  |  |
| COC1OC(COCc2ccc(Cl)cc2)C(OCc2ccc(Cl)cc2)C1O (stereo not drawn) |  | 43.3 | 25.7 µM | 32.8 µM | 35.9 µM | 16 | 31.7 µM | 31.9 µM | TGI (RXF-631 renal): 34.6 µM |
| CCOC(=O)CC(=O)N(c1ccc(OC)cc1)C(C(=O)OC)c1ccccc1 (stereo not drawn) | > 100 |  |  |  |  |  |  |  |  |
| CC12Oc3ccc4ccccc4c3C1c1c(ccc3ccccc13)O2 (stereo not drawn) |  | > 100 |  | > 100 µM | > 100 µM | > 100 | > 100 µM | > 100 µM |  |
| Cn1c(O)c(C=N)c(=O)n(C)c1=O |  |  | > 100 µM | > 100 µM | > 100 µM | > 100 |  | > 100 µM |  |
